The subject of assay [1] is Human osteoblasts (SaM-1). The experiment in a line: Calcification of osteoblasts (Ca content of extracellular matrix, OCPC method). It is filed as cell-based. To be noted: DHNA 10^-7 M to 10^-5 M, 2 mM α-glycerophosphoric acid, culturing for 32 days, vs 0.1% DMSO control (FIG. 4). As to the method: Human osteoblasts (SaM-1), which had been cultured from long bone periosteum of a person obtained during fracture surgery, were employed. […] SaM-1 has been known to promote calcification in the presence of 2 mM of α-glycerophosphoric acid in a 1α, 25 (OH)2D3 concentration-dependent manner (Koshihara, Y. et al.: Biochem. Biophys. Res. commun., 145: 651-657, 1987).
The above-obtained SaM-1 cells of 18 PDL (population doubling level) were inoculated into a 12-well plate, and cultured until the cells reached a confluent state. Subsequently, α-glycerophosphoric acid, which is a calcification promoting agent, was added to the resultant culture broth such that the α-glycerophosphoric acid content became 2 mM. DHNA (10^−7 M to 10^−5 M) was added to the culture broth, followed by culturing for 32 days. For a control, DMSO (a solvent) was added to the culture broth such that the DMSO content became 0.1%. […]
The Ca content of extracellular matrix was quantified by use of a kit (Calcium C Test Wako) based on the o-cresolphthalein complexone method (OCPC method) (Gitleman, H. J.: Anal. Biochem., 18: 520-531, 1967).
After completion of culturing, the resultant cells were washed with a Hanks' solution. […] Thereafter, the resultant reaction mixture was subjected to measurement by use of an absorbance meter (570 nm) (FIG. 4).

Assay [2] has as its system ICR male mice. As to the kind of experiment: Animal model with osteoporosis induced by FK-506. It is filed as in vivo. To be noted: DHNA 75 μg/kg orally every day, FK-506 1 mg/kg i.p. for 10 weeks, vs control group (FK 506 (+)) (FIG. 5). The method, then: As has been known, administration of FK-506, which is known as an immunosuppressive agent, to an animal induces osteoporosis-like conditions (J. Hard Tissue Biology, 103-107, 10 (2), 2001). […] FK-506 (1 mg/kg) was intraperitoneally administered to ICR male mice (eight weeks old) for 10 consecutive weeks. During the 10-week FK-506 administration, a feed (CRF-1, product of Oriental Yeast Co., Ltd.) was arbitrarily ingested into the mice, and DHNA (75 μg/kg) which had been suspended in a 1% aqueous DMSO (dimethyl sulfoxide) solution was orally administered to each of the mice every day.

Molecules are shown by their SMILES.

In the case of `O=C(O)c1cc(O)c2ccccc2c1O` [DHNA, 1,4-dihydroxy-2-naphthoic acid], in assay [1], the “degree of calcification (amount of Ca)” value is “promotes calcification in a concentration-dependent manner”. In addition, the bone density result in assay [2] is listed as “significantly higher than that of the mice in the control group”.

Source of the values: patent US7834061B2, “Process for producing 1,4-dihydroxy-2-naphthoic acid” (Meiji Dairies Corporation, priority 2001, dated 2010).
